From US9833497B2, “Human originated EGF domain proteins and use of the same” (CHENGDU SOURCEBIO LIMITED-LIABILITY COMPANY, priority 2013, dated 2017)

Legend:
Type in all cases: cell-based
[1] = system: E. coli DH5α; experiment: Antibacterial activity: MIC and growth curve against E. coli DH5α in 96-well plate; details: minimal inhibitory concentration against E. coli DH5α; 96-well plate, 5×10^5 CFU/mL, 37° C., judged after 8 h
Summary of the method: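 Log-phase bacteria (OD600 ~0.5) resuspended in LB at 5×10^5 CFU/mL, exposed to recombinant protein at 50, 25, 12.5 μg/mL final in triplicate, 37 °C shaking at 175 rpm. OD600 read every 30 min; MIC is lowest concentration showing no growth.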

[2] = system: E. coli BL21; experiment: MIC against Gram-negative bacteria: E. coli BL21
Summary of the method: (§1)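 Broth microdilution, LB medium, final inoculum 5×10^5 CFU/mL from McFarland 0.5 cultures. Recombinant human EGF domain proteins tested in two-fold steps, n=3. MIC: lowest concentration, no growth.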

[3] = system: Pseudomonas aeruginosa; experiment: MIC against Gram-negative bacteria: Pseudomonas aeruginosa
Summary of the method: as §1

[4] = system: Klebsiella pneumonia; experiment: MIC against Gram-negative bacteria: Klebsiella pneumonia
Summary of the method: as §1

[5] = system: Enterobacter cloacae; experiment: MIC against Gram-negative bacteria: Enterobacter cloacae
Summary of the method: as §1

[6] = system: Aeromonas hydrophila; experiment: MIC against Gram-negative bacteria: Aeromonas hydrophila
Summary of the method: as §1

[7] = system: Citrobacter diversus; experiment: MIC against Gram-negative bacteria: Citrobacter diversus
Summary of the method: as §1

[8] = system: Moraxella catarrhalis; experiment: MIC against Gram-negative bacteria: Moraxella catarrhalis
Summary of the method: as §1

[9] = system: Proteus mirabilis; experiment: MIC against Gram-negative bacteria: Proteus mirabilis
Summary of the method: as §1

[10] = system: Proteus vulgaris; experiment: MIC against Gram-negative bacteria: Proteus vulgaris
Summary of the method: as §1

[11] = system: Serratia marcescens; experiment: MIC against Gram-negative bacteria: Serratia marcescens
Summary of the method: as §1

[12] = E. coli BL21, 5×10^5 CFU/mL, 10 h cultivation at 37° C.
[13] = Pseudomonas aeruginosa, 5×10^5 CFU/mL, 10 h cultivation at 37° C.
[14] = Klebsiella pneumonia, 5×10^5 CFU/mL, 10 h cultivation at 37° C.
[15] = Enterobacter cloacae, 5×10^5 CFU/mL, 10 h cultivation at 37° C.
[16] = Aeromonas hydrophila, 5×10^5 CFU/mL, 10 h cultivation at 37° C.
[17] = Citrobacter diversus, 5×10^5 CFU/mL, 10 h cultivation at 37° C.
[18] = Moraxella catarrhalis, 5×10^5 CFU/mL, 10 h cultivation at 37° C.
[19] = Proteus mirabilis, 5×10^5 CFU/mL, 10 h cultivation at 37° C.
[20] = Proteus vulgaris, 5×10^5 CFU/mL, 10 h cultivation at 37° C.
[21] = Serratia marcescens, 5×10^5 CFU/mL, 10 h cultivation at 37° C.
[22] = E. coli BL21, 10 h cultivation at 37° C.
[23] = P. aeruginosa, 10 h cultivation at 37° C.
[24] = K. pneumonia, 10 h cultivation at 37° C.
[25] = E. cloacae, 10 h cultivation at 37° C.
[26] = A. hydrophila, 10 h cultivation at 37° C.
[27] = C. diversus, 10 h cultivation at 37° C.
[28] = M. catarrhalis, 10 h cultivation at 37° C.
[29] = P. mirabilis, 10 h cultivation at 37° C.
[30] = P. vulgaris, 10 h cultivation at 37° C.
[31] = S. marcescens, 10 h cultivation at 37° C.
[32] = 10 h cultivation at 37° C., 5×10^5 CFU/mL, two-fold serial dilution
[33] = 96-well plate, 5×10^5 CFU/mL, 37° C., 10 h

PRT175 (CEHAPCHNGATCHERGHRYVCECARGYGGPNC; listed as Homo sapiens)
12.5 µg/mL: MIC [1] | MIC (μg/mL) E. coli BL21 ([2]; E. coli BL21, 10 h cultivation at 37° C., 5×10^5 CFU/mL) | MIC (μg/mL) P. aeruginosa ([3]; P. aeruginosa, 10 h cultivation at 37° C., 5×10^5 CFU/mL) | MIC (μg/mL) K. pneumonia ([4]; K. pneumonia, 10 h cultivation at 37° C., 5×10^5 CFU/mL) | MIC (μg/mL) E. cloacae ([5]; E. cloacae, 10 h cultivation at 37° C., 5×10^5 CFU/mL) | MIC (μg/mL) C. diversus ([7]; C. diversus, 10 h cultivation at 37° C., 5×10^5 CFU/mL) | MIC (μg/mL) P. mirabilis ([9]; P. mirabilis, 10 h cultivation at 37° C., 5×10^5 CFU/mL) | MIC (μg/mL) S. marcescens ([11]; S. marcescens, 10 h cultivation at 37° C., 5×10^5 CFU/mL)
25 µg/mL: MIC (μg/mL) A. hydrophila ([6]; A. hydrophila, 10 h cultivation at 37° C., 5×10^5 CFU/mL) | MIC (μg/mL) M. catarrhalis ([8]; M. catarrhalis, 10 h cultivation at 37° C., 5×10^5 CFU/mL) | MIC (μg/mL) P. vulgaris ([10]; P. vulgaris, 10 h cultivation at 37° C., 5×10^5 CFU/mL)

PRT1370 (GVRSCPGDCRGRGRCESGRCMCWPGYTGRDC; listed as Homo sapiens)
25 µg/mL: MIC [1] | MIC against P. aeruginosa [3, 13] | MIC against E. cloacae [5, 15] | MIC against A. hydrophila [6, 16] | MIC against M. catarrhalis [8, 18] | MIC against P. vulgaris [10, 20]
50 µg/mL: MIC against K. pneumonia [4, 14] | MIC against P. mirabilis [9, 19]
12.5 µg/mL: MIC against E. coli BL21 [2, 12] | MIC against C. diversus [7, 17] | MIC against S. marcescens [11, 21]

PRT1477 (DIDECSENMCAQLCVNYPGGYTCYCDGKKGFKLAQDQKSCE; listed as Homo sapiens)
12.5 µg/mL: MIC against E. coli BL21 [2, 12] | MIC against K. pneumonia [4, 14] | MIC against M. catarrhalis [8, 18] | MIC against S. marcescens [11, 21]
50 µg/mL: MIC [1] | MIC against P. aeruginosa [3, 13] | MIC against A. hydrophila [6, 16] | MIC against P. vulgaris [10, 20]
25 µg/mL: MIC against E. cloacae [5, 15] | MIC against C. diversus [7, 17] | MIC against P. mirabilis [9, 19]

PRT1006 (PLSSCQKAALSQGIDVSSLCHNGGLCVDSGPSYFCHCPPGFQGSLCQ; listed as Homo sapiens)
12.5 µg/mL: MIC [1] | MIC [3, 23] | MIC [5, 25] | MIC [8, 28]
25 µg/mL: MIC [7, 27] | MIC [9, 29] | MIC [11, 31]
50 µg/mL: MIC [2, 22] | MIC [4, 24] | MIC [6, 26] | MIC [10, 30]

PRT992 (LEDMCLSQPCHGDAQCSTNPLTGSTLCLCQPGYSGPTCH; listed as Homo sapiens)
25 µg/mL: MIC [5, 25] | MIC [6, 26] | MIC [7, 27] | MIC [8, 28] | MIC [9, 29] | MIC [11, 31]
12.5 µg/mL: MIC [1] | MIC [2, 22] | MIC [3, 23] | MIC [4, 24] | MIC [10, 30]

PRT1275 (EGMNCMNKNHGCAHICRETPKGGIACECRPGFELTKNQRDCK; listed as Homo sapiens)
50 µg/mL: MIC against E. coli BL21 ([2]; E. coli BL21, 96-well plate, 5×10^5 CFU/mL, 37° C., 10 h) | MIC against K. pneumonia ([4]; Klebsiella pneumonia, 96-well plate, 5×10^5 CFU/mL, 37° C., 10 h) | MIC against A. hydrophila ([6]; Aeromonas hydrophila, 96-well plate, 5×10^5 CFU/mL, 37° C., 10 h) | MIC against C. diversus ([7]; Citrobacter diversus, 96-well plate, 5×10^5 CFU/mL, 37° C., 10 h) | MIC against P. mirabilis ([9]; Proteus mirabilis, 96-well plate, 5×10^5 CFU/mL, 37° C., 10 h)
25 µg/mL: MIC against P. vulgaris ([10]; Proteus vulgaris, 96-well plate, 5×10^5 CFU/mL, 37° C., 10 h)
12.5 µg/mL: MIC [1] | MIC against P. aeruginosa ([3]; Pseudomonas aeruginosa, 96-well plate, 5×10^5 CFU/mL, 37° C., 10 h) | MIC against E. cloacae ([5]; Enterobacter cloacae, 96-well plate, 5×10^5 CFU/mL, 37° C., 10 h) | MIC against M. catarrhalis ([8]; Moraxella catarrhalis, 96-well plate, 5×10^5 CFU/mL, 37° C., 10 h) | MIC against S. marcescens ([11]; Serratia marcescens, 96-well plate, 5×10^5 CFU/mL, 37° C., 10 h)

PRT1362 (GKPTCPHACHTQGRCEEGQCVCDEGFAGVDCS; listed as Homo sapiens)
12.5 µg/mL: MIC [1] | MIC against E. cloacae [5, 15] | MIC against C. diversus [7, 17] | MIC against P. mirabilis [9, 19] | MIC against P. vulgaris [10, 20] | MIC against S. marcescens [11, 21]
25 µg/mL: MIC against E. coli BL21 [2, 12] | MIC against K. pneumonia [4, 14]
50 µg/mL: MIC against P. aeruginosa [3, 13] | MIC against A. hydrophila [6, 16] | MIC against M. catarrhalis [8, 18]

PRT1454 (DVNECFYEELNACSGRELCANLEGSYWCVCHQEAPATSPRKLNLEWEDCP; listed as Homo sapiens)
12.5 µg/mL: MIC against E. coli BL21 [2, 12] | MIC against P. aeruginosa [3, 13] | MIC against C. diversus [7, 17] | MIC against P. mirabilis [9, 19]
50 µg/mL: MIC against E. cloacae [5, 15] | MIC against M. catarrhalis [8, 18] | MIC against S. marcescens [11, 21]
25 µg/mL: MIC [1] | MIC against K. pneumonia [4, 14] | MIC against A. hydrophila [6, 16] | MIC against P. vulgaris [10, 20]

PRT1064 (INECLSRKLSGCSQDCEDLKIGFKCRCRPGFRLKDDGRTCA; listed as Homo sapiens)
25 µg/mL: MIC [1] | MIC P. aeruginosa [3, 32] | MIC A. hydrophila [6, 32] | MIC M. catarrhalis [8, 32] | MIC P. vulgaris [10, 32]
50 µg/mL: MIC E. coli BL21 [2, 32] | MIC E. cloacae [5, 32] | MIC P. mirabilis [9, 32]
12.5 µg/mL: MIC K. pneumonia [4, 32] | MIC C. diversus [7, 32] | MIC S. marcescens [11, 32]

PRT498 (CDCNPHGSVHGDCDRTSGQCVCRLGASGLRCDECEPRHILMETDCVS; listed as Homo sapiens)
25 µg/mL: MIC against C. diversus [7, 33] | MIC against P. mirabilis [9, 33] | MIC against S. marcescens [11, 33]
50 µg/mL: MIC against E. coli BL21 [2, 33]
12.5 µg/mL: MIC [1] | MIC against P. aeruginosa [3, 33] | MIC against K. pneumonia [4, 33] | MIC against E. cloacae [5, 33] | MIC against A. hydrophila [6, 33] | MIC against M. catarrhalis [8, 33] | MIC against P. vulgaris [10, 33]
